The nature of the data set: Solubility of DMT fumarate at 10 mg/mL in aqueous vehicles (initial tests). To be noted: 10 mg/mL in water, saline, 20 mM phosphate buffer, and buffer combined with saline. The format is physicochemical. As to the method:
Solubility of DMT fumarate was assessed at a concentration of 10 mg/mL in a small selection of aqueous vehicles (water, saline, 20 mM phosphate buffer and a combination of buffer and saline).
Phosphate buffer (100 mL) was prepared using 219.53 mg of the dibasic form [HPO4][Na]2 with 183.7 mg of the monobasic form [H2PO4]Na, both dihydrate salts. The solution was adjusted to pH 7.0 with addition of NaOH (1 M) and then made to volume. 10 mL of a 10 mg/mL formulation was prepared.
To prepare this, sodium chloride was first dissolved in water to produce the saline solution (100 mL, 0.45% w/v). The phosphate salts, in the quantities described above, were then dissolved in the saline solution and the pH was adjusted using NaOH (1 M).
The pH of these solutions was in the range 3-4.

As for DMT fumarate [SPL026], the Solubility entry is recorded as “readily soluble”.
